Test results as given in patent US8540999B2, “Allergenic proteins and peptides from Japanese cedar pollen” (Merck Patent GmbH, priority 1991, dated 2013).
Blank lines part the entries; values can stand above or below the molecule they belong to. Ends that are not written are not given here.

How the values were obtained:
[1] = Solubility, pH range protocol procedure; type: physicochemical; conditions: pH range pH6 to pH8
Text: (§1) Of the above group of modified peptides, several peptides have been identified as “unique” modified peptides. […] Certain modified peptides are characterized as “unique” due to the difficulties encountered when developing a modified peptide which meets all of the stringent requirements of a “unique” peptide defined herein. In many cases, multiple modifications of a parent peptide are attempted prior to identifying a modified derivitive peptide which meets all the characteristics of a “unique” modified peptide. Unique modified peptides are particularly useful as candidate peptides for formulating injectable multipeptide therapeutic formulations of the invention because “unique” modified peptides are soluble and stable in the same physiologically acceptable pH range as well as elicit the necessary T cell reactivity of a therapeutic peptide of the invention. “Unique” modified peptides of the invention include but are not limited to the following group of modified peptides: CJ1-24.5, CJ1-43.39, CJ1-43.50, CJ1-44.8, and CJ1-44.9 all as shown in FIGS. 20 and 44. Example 21 describes the development and identification of “unique” modified peptides of the invention.
(§2) Additional truncation of two C-terminal residues yielded 44.2 (SEQ ID NO: ). […] Thus, 44.2 (SEQ ID NO: ) was further modified by the addition of charged (hydrophilic residues) to the N-terminus and by replacement of the hydrophobic residue Val with the less hydrophobic residue Ala. […] CJI-44.8 (SEQ ID NO: 132) was stable and soluble at greater than 5 mg/ml over the pH range pH6-pH8 in an aqueous buffer.

[2] = Stability in aqueous buffer; type: physicochemical; conditions: pH6 to pH8
Text: as §1, §2

Cry j I reactive T cells = assay: T cell proliferation assay, Cry j I primed T cell lines (Example 6); type: cell-based, human; conditions: for T cell reactivity: Example 21 narrative, parent peptides of CJI-44.8; for T cell line response: panel of twenty-five patients, FIG. 14
Protocol: Viable cells were purified by LSM centrifugation and cultured in complete medium supplemented with 5 units recombinant human IL-2/ml and 5 units recombinant human IL-4/ml for up to three weeks until the cells no longer responded to lymphokines and were considered “rested”. The ability of the T cells to proliferate to selected peptides, recombinant Cry j I (rCry j I), purified native Cry j I, or recombinant Amb aI.1 (rAmb aI.1) or a positive control, phyto-hemaglutinin (PHA) was then assessed. For assay, 2×10^4 rested cells were restimulated in the presence of 2×10^4 autologous Epstein-Barr virus (EBV)-transformed B cells (prepared as described below) (gamma-irradiated with 25,000 RADS) with 2-50 μg/ml of selected peptides, Cry j I, purified native Cry j I or rAmb a I.1 or PHA, in a volume of 200 μl complete medium in duplicate or triplicate wells in 96-well round bottom plates for 2-4 days. […] Each well then received 1 μCi tritiated thymidine for 16-20 hours. The counts incorporated were collected onto glass fiber filter mats and processed for liquid scintillation counting. […] The titrations were used to optimize the dose of peptides in T cell assays. The maximum response in a titration of each peptide is expressed as the stimulation index (S.I.). The S.I. is the counts per minute (CPM) incorporated by cells in response to peptide, divided by the CPM incorporated by cells in medium only.
The above procedure was followed with a number of other patients. […] The bars represent the positivity index. Above each bar is the percent of positive responses with an S.I. of at least two to the peptide or protein in the group of patients tested. In parenthesis above each bar are the mean stimulation indices for each peptide or protein for the group of patients tested.
Autologous EBV-transformed cell lines were y-irradiated with 25,000 Rad and used as antigen presenting cells in secondary proliferation assays and secondary bulk stimulations. These EBV-transformed cell lines were made by incubating 5×10^6 PBL with 1 ml of B-59/8 Marmoset cell line (ATCC CRL1612, American Type Culture Collection, Rockville, Md.) conditioned medium in the presence of 1 μg/ml phorbol 12-myristate 13-acetate (PMA) at 37° C. for 60 minutes in 12×75 mm polypropylene round-bottom Falcon snap cap tubes (Becton Dickinson Labware, Lincoln Park, N.J.). These cells were then diluted to 1.25×10^6 cells/ml in RPMI-1640 as described above except supplemented with 10% heat-inactivated fetal bovine serum and cultured in 200 μl aliquots in flat bottom culture plates until visible colonies were detected. They were then transferred to larger wells until the cell lines were established.

[3] = system: Cry j II reactive T cells; assay: T cell proliferation assay, Cry j II primed T cell lines (Example 19); type: cell-based, human
Protocol: Long term T cell lines were established by stimulation of 2×10^6 PBL/ml in bulk cultures of complete medium (RPMI-1640, 2 mM L-glutamine, 100 U/ml penicillin/streptomycin, 5×10^−5M 2-mercaptoethanol, and 10 mM HEPES supplemented with 5% heat inactivated human AB serum) with 10 μg/ml of partially purified native Cry j II for 7 days at 37° C. in a humidified 5% CO2 incubator to select for Cry j II reactive T cells. This amount of priming antigen was determined to be optimal for the activation of T cells from most Japanese cedar pollen Cry j II allergic patients. Viable cells were purified by LSM centrifugation and cultured in complete medium supplemented with 5 units recombinant human IL-2/ml and 5 units recombinant human IL-4/ml for up to three weeks until the cells no longer responded to lymphokines and were considered “rested”. The ability of the T cells to proliferate to peptides Cry j IIA (SEQ ID NO: 185) and Cry j IIB (SEQ ID NO: 186), recombinant Cry j II (rCry j II) (SEQ ID NO: 134), purified native Cry j II, was then assessed. For assay, 2×10^4 rested cells were restimulated in the presence of 2×10^4 autologous Epstein-Barr virus (EBV)-transformed B cells (prepared as described in Example 6) (gamma-irradiated with 25,000 RADS) with 2-50 ’g/ml of rCry j II (SEQ ID NO: 134), purified native Cry j II, peptides Cry j IIA (SEQ ID NO: 185) and Cry j IIB (SEQ ID NO: 186), positive control (PHA), negative control (Amb a I.1), in a volume of […] complete medium in duplicate or triplicate wells in 96-well round bottom plates for 2-4 days. […] Each well then received 1 μCi tritiated thymidine for 16-20 hours. The counts incorporated were collected onto glass fiber filter mats and processed for liquid scintillation counting. The maximum response in a titration of each peptide is expressed as the stimulation index (S.I.). The S.I. is the counts per minute (CPM) incorporated by cells in response to peptide, divided by the CPM incorporated by cells in medium only. A positivity index may be calculated by multiplying the mean S.I. (indicated above each bar in FIGS. 42 and 43) by the percentage of individuals responding to the peptide (indicated in parentheses above each bar in FIGS. 42 and 43). […]

patients' plasma IgE = assay: Direct binding assay of IgE to Cry j I, Cry j II and recombinant Cry j II (Example 18); parameters: species or system human
Protocol: Costar assay plates were coated with Cry j I or Cry j II at 2 μg/mL or recombinant Cry j II preparation at 10 μg/mL (approximately 20% pure) in a volume of 50 μL overnight at 4° C. The coating antigens were removed and the wells were blocked with 0.5% gelatin, PVP (polyvinyl pyrolidine) 1 mg/mL in PBS, 200 μL/well for 2 hours at room temperature. The anti-Cry j I monoclonal antibody, 4B11, was serially diluted in PBS-Tween 20 starting at a 1:1000 dilution. The human plasma were serially diluted in PBS-Tween at a starting dilution of 1:2. For this set 23 plasma samples from patients symptomatic for Japanese cedar pollen allergy chosen for IgE binding analysis. The first antibody incubation proceeded overnight at 4° C. Following three washes with PBS-Tween the second antibodies were added (biotinylated goat anti-mouse Ig or goat anti-human IgE both at 1:2000) and incubated for two hours at room temperature at 100 μL/well. After washing 3 times, […]. This solution was removed and streptavidin-HRPO diluted to 1:10,000, was added at 100 μL/well. The color was allowed to develop for 2-5 minutes. The reaction was stopped by the addition of 100 μL/well of 1M phosphoric acid. Plates were read on a Microplate IL310 Autoreader (Biotek Instruments, Winooski, Vt.) with a 450 nm filter. The absorbance levels of duplicate wells were averaged. A positive binding result, indicated by a plus sign is determined to be a reading of two-fold or greater above background (no first antibody) at the second dilution of plasma ([…]).

[4] = aqueous sodium phosphate buffer

- solubility [1, 4]: > 5000 µg/mL
- stability [2]: stable
Molecule: DDAYSDDKSMKVTVAFNQFGDE [CJ1-43.39]

- solubility ([1]; aqueous buffer): > 5000 µg/mL
- stability [2]: stable
Molecule: DEEGAYFVSSGKYEGGNIYTKKEAFNVEDE [CJ1-44.9]

Molecule: CJ1-31: Cry j I peptide, SEQ ID NO: 56 (DVFYNGAYFVSSGKYEGGNI; listed as Cryptomeria japonica)
- T cell reactivity (Cry j I reactive T cells): high T-cell reactivity
- T cell line response (Cry j I reactive T cells): responded

Molecule: Cry j IIH: SEQ ID NO: 192, amino acids 386-409 of Cry j II (DSMPCKDIKLSDISLKLTSGKIAS; listed as Cryptomeria japonica)
- T cell proliferative response ([3]; 9 patients, FIG. 43): react

Molecule: Cry j IIG: SEQ ID NO: 191, amino acids 152-175 of Cry j II (GKGVIDGQGKQWWAGQCKWVNGRE; listed as Cryptomeria japonica)
- T cell proliferative response ([3]; 9 patients, FIG. 43): react

Molecule: CJ1-32: Cry j I peptide, SEQ ID NO: 57 (SSGKYEGGNIYTKKEAFNVE; listed as Cryptomeria japonica)
- T cell reactivity (Cry j I reactive T cells): high T-cell reactivity
- T cell line response (Cry j I reactive T cells): responded

- solubility [1, 4]: > 5000 µg/mL
- stability [2]: stable
Molecule: DKEPRARYGLVHVANNNYDPWTIEEE [CJ1-24.5]

- solubility ([1]; aqueous buffer): > 5000 µg/mL
- stability [2]: stable
Molecule: KSMKVTVAFNQARK [CJ1-43.50]

B1: Cry j IIC: recombinant peptide, amino acids 46-163 of Cry j II, SEQ ID NO: 187 (protein, listed as Cryptomeria japonica)
chain: MGHHHHHHEFRKVEHSRHDAINIFNVEKYGAVGDGKHDCTEAFSTAWQAACKNPSAMLLVPGSKKFVVNNLFFNGPCQPHFTFKVDGIIAAYQNPASWKNNRIWLQFAKLTGFTLMGKGVIDGQGKQW
- T cell proliferative response ([3]; 9 patients, FIG. 43): react

B2: Cry j IIE: recombinant peptide, amino acids 281-396 of Cry j II, SEQ ID NO: 189 (protein, listed as Cryptomeria japonica)
chain: MGHHHHHHEFSIGSLGRENSRAEVSYVHVNGAKFIDTQNGLRIKTWQGGSGMASHIIYENVEMINSENPILINQFYCTSASACQNQRSAVQIQDVTYKNIRGTSATAAAIQLKCSDSMPCKDIKLSD
- T cell proliferative response ([3]; 9 patients, FIG. 43): react

- plasma IgE binding response (patients' plasma IgE; patient #1034): negative
- plasma IgE binding response (patients' plasma IgE; patient plasma samples, FIGS. 31-33): further reduction in binding
- plasma IgE binding response (patients' plasma IgE; patients #1143 and #1146): clearly positive
B3: rCry j II: recombinant Cry j II expressed in E. coli with His6 leader (protein, listed as Cryptomeria japonica)
chain: MAMKLIAPMAFLAMQLIIMAAAEDQSAQIMLDSVVEKYLRSNRSLRKVEHSRHDAINIFNVEKYGAVGDGKHDCTEAFSTAWQAACKNPSAMLLVPGSKKFVVNNLFFNGPCQPHFTFKVDGIIAAYQNPASWKNNRIWLQFAKLTGFTLMGKGVIDGQGKQWWAGQCKWVNGREICNDRDRPTAIKFDFSTGLIIQGLKLMNSPEFHLVFGNCEGVKIIGISITAPRDSPNTDGIDIFASKNFHLQKNTIGTGDDCVAIGTGSSNIVIEDLICGPGHGISIGSLGRENSRAEVSYVHVNGAKFIDTQNGLRIKTWQGGSGMASHIIYENVEMINSENPILINQFYCTSASACQNQRSAVQIQDVTYKNIRGTSATAAAIQLKCSDSMPCKDIKLSDISLKLTSGKIASCLNDNANGYFSGHVIPACKNLSPSAKRKESKSHKHPKTVMVENMRAYDKGNRTRILLGSRPPNCTNKCHGCSPCKAKLVIVHRIMPQEYYPQRWICSCHGKIYHP
- T cell proliferative response ([3]; 9 patients, FIG. 43): react
- T cell proliferative response ([3]; n=6 patients, FIG. 42): respond well

B4: Cry j IID: recombinant peptide, amino acids 164-280 of Cry j II, SEQ ID NO: 188 (protein, listed as Cryptomeria japonica)
chain: MGHHHHHHEFWAGQCKWVNGREICNDRDRPTAIKFDFSTGLIIQGLKLMNSPEFHLVFGNCEGVKIIGISITAPRDSPNTDGIDIFASKNFHLQKNTIGTGDDCVAIGTGSSNIVIEDLICGPGHGI
- T cell proliferative response ([3]; 9 patients, FIG. 43): react

B5: Cry j IIF: recombinant peptide, amino acids 397-514 of Cry j II, SEQ ID NO: 190 (protein, listed as Cryptomeria japonica)
chain: MGHHHHHHEFISLKLTSGKIASCLNDNANGYFSGHVIPACKNLSPSAKRKESKSHKHPKTVMVENMRAYDKGNRTRILLGSRPPNCTNKCHGCSPCKAKLVIVHRIMPQEYYPQRWICSCHGKIYHP
- T cell proliferative response ([3]; 9 patients, FIG. 43): react
